Results: patent US20240325544A1, “CATIONIC LIPID FOR COVALENT MODIFICATION OF PEPTIDES” (PharmalN Corporation, priority 2023, published 2024)
Marks after values point to notes of the source that are not given here. Bridge positions count the residues as written; N and C are the ends. Square brackets hold non-standard residues; d marks the D form. Peptide text beside a SMILES is read from it. * marks the point of attachment. C18 diacid = O=C(O)CCCCCCCCCCCCCCCCC(=O)*; Palmitoyl = CCCCCCCCCCCCCCCC(=O)*; Dab = NCC[C@H](N)C(=O)O; Dap = NC[C@H](N)C(=O)O; AEEA = NCCOCCOCC(=O)O

What was measured:
Sprague Dawley rats [1] = assay: Clinically observable adverse effects of cationic alkyl moieties after subcutaneous bolus in rats (Table 1); assay type: in vivo, rat; conditions: tested at 3.0, 5.0 or 10 μmol/kg; for Ataxia** in n = 3: ataxia is bolus dose limiting toxicity; for Swelling and/or Discoloration in n = 3: dose at which sign was seen
Description: (§1) Drug administration and observation: Each rat received a subcutaneous injection of a cationic alkyl modifier (SEQ ID NO: 1-22; listed in Table 1 below) in a buffer of sterile water adjusted to a pH between 4.5-5, with an initial bolus dose of 5.0 μmol/kg and an injection volume of 1.0 mL/kg. The bolus dose level was adjusted based on observations, and animals were monitored closely for lethargy, ataxia, swelling, or discoloration during the first 4 hours post-injection and hourly thereafter. As used herein, “ataxia” means a clinical sign observed as poor muscle control that causes clumsy voluntary movements. It may cause difficulty with mobility, coordination, and eye movements. As used herein, “lethargy” means a clinical sign observed as inability or unwillingness to resume normal activity characterized by exploring and alertness. Lethargic rats are easily observed by displaying little to no activity and/or unwillingness to explore around, half closed eyes, and hunched posture. As used herein, “swelling” means a clinical sign observed as the enlargement or engorgement of body parts with blood or fluid and is associated with visible redness (discoloration). If no swelling occurred, dose level was increased to 10 μmol/kg; if swelling was present, bolus dose level was decreased to 3.0 μmol/kg. A wash-out period of 1 week was allowed between bolus doses, and animals were humanely euthanized through CO2 asphyxiation after final observation.

[2] = as above; assay type: in vivo, rat; conditions: male, Sprague-Dawley, rat, in vivo, sc, tested at 3.0, 5.0 or 10 μmol/kg, lethargy is considered maximum tolerated bolus dose, read-out: Lethargy* in n = 3
Description: as §1

[3] = test system: E0771 breast cancer cells; assay: Orthotopic mouse model of breast cancer using E0771 cells (FIG. 6); assay type: in vivo, mice; conditions: 0.3 mg/kg (0.1 μmol/kg) SC once daily, 5 days on, 2 days off, 3 cycles
Description: Error bars represent standard error of the mean. FIG. 6A) Tumor growth kinetics of 6-week-old female C57BL/6J mice (n=10 per group) that were inoculated with E0771 breast cancer cells (250,000 cells/mouse) in the mammary gland. Starting from Day 4 post-inoculation, cationic alkyl modified CNP derivatives (SEQ ID NO: 29, 30, and 31) were administered subcutaneously at a bolus dose of 0.3 mg/kg (0.1 μmol/kg) once daily for 5 days (5 days on, 2 days off) for 3 cycles; dose days indicated by gridlines. The control group, which received only buffer, was dosed in the same manner to establish the baseline tumor growth kinetics. […] Therefore, it can be concluded that the attachment of CNP is important for the observed anti-tumor activity. Statistical analysis was based on Dunnett's test performed by using GraphPad (n=10, 10, 10, and 10; Control, SEQ ID NO: 29, SEQ ID NO: 30, and SEQ ID NO: 31) **** P<0.0001 vs Control group.
Therefore, it can be concluded that the attachment of CNP is essential for anti-tumor activity. […] Animal care and treatment: Female C57BL/6J mice (6 weeks-old) were purchased from Kyudo (Saga, Japan) and maintained under a 12-hour light/12-hour dark cycle with free access to water and standard mouse diet (MF diet, Oriental Yeast Co., Ltd. Tokyo, Japan or PicoLab Rodent Diet 20, LabDiet Corp., St. Louis, Missouri). Implantation and drug administration: Mice were implanted with E0771 breast cancer cells (250,000 cells/mouse; Cosmo Bio Tokyo, Japan) in their left mammary gland and were randomized into groups of n=10. Starting from Day 4 post-inoculation, cationic alkyl modified CNP derivatives (SEQ ID NOs: 29, 30, and 31) were administered subcutaneously at a bolus dose of 0.3 mg/kg (0.1 μmol/kg; with a dose volume of 10 mL/kg) in sterile water for injection (Otsuka Pharmaceutical, Tokushima, Japan) once daily for 5 days (5 days on, 2 days off) for 3 cycles. The control group, which received only buffer, was dosed in the same manner to establish the baseline tumor growth kinetics. Tumor sizes were measured using calipers. Statistical analysis was based on Dunnett's test performed by using GraphPad (n=10, 10, 10, and 10; Control, SEQ ID NO: 29, SEQ ID NO: 30, and SEQ ID NO: 31) **** P<0.0001 vs Control group.

cGMP = assay: Plasma cGMP after SC bolus of natriuretic peptides in CD-1 mice (pharmacodynamics, Table 3); assay type: in vivo; conditions: SC bolus 1.0 mg/kg (≤0.45 μmol/kg), baseline 10 +/−8 pmol/ml, n = 3-5
Description: (§2) The test articles were formulated or dissolved in sterile water for injection on the same day of administration. […] Blood samples were collected via retro-orbital bleed at 2- and 6-hours post-injection, with two bleedings per animal at two different timepoints. The samples were collected in K2EDTA tubes, processed by centrifugation (2000×g; 15 m 4 eC within 30 minutes after collection), and the resulting plasma samples were stored at −80° C. Biochemical analysis: The plasma concentration of the respective natriuretic peptide was analyzed using commercially available ELISA kits from Phoenix Pharmaceuticals (Burlingame, CA): ANP ELISA (cat #EKE-005-06), BNP ELISA (cat #EKE-011-03), and CNP ELISA (cat #EKE-012-03). […] Plasma cGMP was analyzed using a commercially available kit from Abcam (ab133052, Waltham, MA).

Sprague Dawley rats [4] = assay: Dose-range finding of cationic alkyl modified CNP, subcutaneous bolus in rats (Table 2)
[5] = Plasma concentration of respective natriuretic peptide by ELISA after SC bolus in CD-1 mice (pharmacokinetics, Table 3); conditions: male, CD-1, mouse, in vivo, sc, 1 mg/kg
Description: as §2

[6] = test system: inflammatory cytokines (MCP1, IL-6, TNFα) in BALF; assay: LPS ALI model: inflammatory cytokines in BALF by ELISA (Table 4); assay type: in vivo, mice; conditions: LPS 0.05 mg/kg IT; SEQ 0.3 mg/kg SC, Sivelestat 150 mg/kg IP; 24 hours
Description: Animal care and treatment: Male C57BL/6J mice (6 weeks-old) were purchased from Kyudo (Saga, Japan) and maintained under a 12-hour light/12-hour dark cycle with free access to water and standard mouse diet (MF diet, Oriental Yeast Co., Ltd. Tokyo, Japan). Drug administration: Mice were administered LPS (0.05 mg/kg IT; Sigma-Aldrich) followed by treatment with various test articles, including Sivelestat (150 mg/kg; Nipro, Osaka, Japan), an inhibitor of human neutrophil elastase, injected IP as a positive control, and cationic alkyl modified CNPs (SEQ ID NO: 31, 29, and 30; 0.3 mg/kg (0.1 μmol/kg) SC). The test articles were administered immediately after LPS injection. Additionally, a normal control (NC) group without LPS administration and a Control group receiving only LPS without any test article were included. After 24 hours, the mice were euthanized under isoflurane anesthesia and BALF was harvested. Biochemical analysis: ALI and ARDS are often characterized by increased levels of inflammatory cytokines, including Macrophage Chemoattractant Protein-1 (MCP1), Interleukin-6 (IL-6), and […] (TNFα), in BALF. Decreases in their concentration can indicate the resolution of ALI/ARDS. Concentration of each cytokine (MCP1, IL-6, and TNFα) was measured using an ELISA kit (R&D SYSTEMS, Minneapolis M N). […] Statistical analysis was based on Dunnett's test performed by using GraphPad. (n=5, 8, 8, 8, and 8; NC, Control, PC, SEQ ID NO: 31, SEQ ID NO: 29). *** P<0.001, ** P<0.01, * P<0.05 vs each corresponding Control group.

CCCCCCCCCCCCCCCC(=O)NCCOCCOCC(=O)NCCOCCOCC(=O)NCCOCCOCC(=O)N[C@@H](CCN)C(=O)N[C@@H](CCN)C(=O)N[C@@H](CCN)C(=O)O [SEQ ID NO: 9, CH3(CH2)14(C═O)-Aeea-Aeea-Aeea-Dab-Dab-Dab] ({Palmitoyl-AEEA-AEEA-AEEA}-[Dab]-[Dab]-[Dab]-OH; C-terminus assumed)
Ataxia** in n = 3 (Sprague Dawley rats [1]): >5 µmol/kg | Swelling and/or Discoloration in n = 3 (Sprague Dawley rats [1]): ≥3 µmol/kg | MTD [2]: > 5 µmol/kg

NCC[C@H](NC(=O)[C@H](CCN)NC(=O)COCCOCCNC(=O)COCCOCCNC(=O)COCCOCCNC(=O)CCCCCCCCCCCCCCCCC(=O)O)C(=O)O [SEQ ID NO: 18, (HOOC)(CH2)16(C═O)-Aeea-Aeea-Aeea-Dab-Dab] ({C18 diacid-AEEA-AEEA-AEEA}-[Dab]-[Dab]-OH; C-terminus assumed)
Ataxia** in n = 3 (Sprague Dawley rats [1]): >10 µmol/kg | Swelling and/or Discoloration in n = 3 (Sprague Dawley rats [1]): >10 µmol/kg | MTD [2]: > 10 µmol/kg

CCCCCCCCCCCCCCCC(=O)NCCOCCOCC(=O)NCCOCCOCC(=O)NCCOCCOCC(=O)N[C@@H](CN)C(=O)N[C@@H](CN)C(=O)O [SEQ ID NO: 14, CH3(CH2)14(C═O)-Aeea-Aeea-Aeea-Dap-Dap] ({Palmitoyl-AEEA-AEEA-AEEA}-[Dap]-[Dap]-OH; C-terminus assumed)
Tumor volume compared to the Control group [3]: did not show a significant reduction in tumor volume | Ataxia** in n = 3 (Sprague Dawley rats [1]): >10 µmol/kg | Swelling and/or Discoloration in n = 3 (Sprague Dawley rats [1]): >10 µmol/kg | MTD [2]: > 10 µmol/kg

CCCCCCCCCCCCCCCC(=O)N[C@@H](Cc1ccc(O)cc1)C(=O)N[C@@H](CCC(=O)O)C(=O)NCCOCCOCC(=O)NCCOCCOCC(=O)N[C@@H](CCN)C(=O)N[C@@H](CCN)C(=O)NCC(=O)N[C@@H](CC(C)C)C(=O)N[C@@H](CO)C(=O)N[C@@H](CCCCN)C(=O)NCC(=O)N[C@H]1CSSC[C@@H](C(=O)O)NC(=O)CNC(=O)[C@H](CC(C)C)NC(=O)CNC(=O)[C@H](CO)NC(=O)[C@H](CCC(N)=O)NC(=O)[C@H](CO)NC(=O)CNC(=O)[C@H]([C@@H](C)CC)NC(=O)[C@H](CCCNC(=N)N)NC(=O)[C@H](CC(=O)O)NC(=O)[C@H](CC(C)C)NC(=O)[C@H](CCCCN)NC(=O)[C@H](CC(C)C)NC(=O)CNC(=O)[C@H](Cc2ccccc2)NC1=O [SEQ ID NO: 30] (Palmitoyl-YE[AEEA][AEEA][Dab][Dab]GLSKGCFGLKLDRIGSQSGLGC-OH; disulfide 12-28; C-terminus assumed)
Tumor volume compared to the Control group [3]: significant decrease in tumor volume | Plasma concentration of cGMP, 2 hr (cGMP; 2 hr): 217.30** pmol/mL | Plasma concentration of cGMP, 6 hr (cGMP; 6 hr): 83.85* pmol/mL | Ataxia** in n = 3 (Sprague Dawley rats [4]; up to 10 mg/kg): >10 mg/kg | Lethargy* in n = 3 (Sprague Dawley rats [4]; up to 10 mg/kg): ≥10 mg/kg | Swelling and/or Discoloration in n = 3 (Sprague Dawley rats [4]; up to 10 mg/kg): >10 mg/kg | Ataxia** in n = 3 (Sprague Dawley rats [4]; value in parentheses): (3.3) μmol/kg | Lethargy* in n = 3 (Sprague Dawley rats [4]; value in parentheses): (3.3) μmol/kg | Swelling and/or Discoloration in n = 3 (Sprague Dawley rats [4]; value in parentheses): (3.3) μmol/kg | level at 2 h [5]: 12.6 ng/mL | level at 6 h [5]: 1.9 ng/mL

CC(C)(C)C(=O)Oc1ccc(S(=O)(=O)Nc2ccccc2C(=O)NCC(=O)O)cc1 [Sivelestat, reference compound]
IL-6 in BALF [6]: 69 % Of Control | MCP1 in BALF [6]: 63 % Of Control | TNFα in BALF [6]: 63 % Of Control
